Measured values as given in PubChem BioAssay (NCI).
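1) Cells in 96-well plates. 2) Compound, 48 h, 5 concentrations. 3) Linear interpolation between surrounding doses. 4) Unreached endpoint = highest concentration. Definition used: TGI = concentration required for complete inhibition of growth.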 Activity calls are given as the source filed them. Cut-off read from the data, not from the text of the source: active = GI50 below about 0.43 µM; inactive = the rest.

Legend:
Assay in all cases: growth of human tumour cells (NCI), 48 h
[1] = system: HOP-62 NSCLC
[2] = system: OVCAR-5 ovarian
[3] = system: TK-10 renal
[4] = system: SW-620 colon
[5] = system: 786-0 renal
[6] = system: SNB-78 CNS
[7] = system: HOP-92 NSCLC
[8] = system: MOLT-4 leukemia
[9] = system: RPMI-8226 leukemia
[10] = system: NCI-H522 lung
[11] = system: SF-295 CNS
[12] = system: SF-268 CNS
[13] = system: M14 melanoma
[14] = system: MALME-3M melanoma
[15] = system: UO-31 renal
[16] = system: RXF-631 renal
[17] = system: SR leukemia
[18] = system: HL-60(TB) leukemia
[19] = system: CAKI-1 renal
[20] = system: NCI-H226 lung
[21] = system: K-562 leukemia
[22] = system: LXFL 529 NSCLC
[23] = system: ACHN renal
[24] = system: IGROV1 ovarian
[25] = system: OVCAR-3 ovarian
[26] = system: LOX IMVI melanoma
[27] = system: SF-539 CNS
[28] = system: SK-MEL-2 melanoma
[29] = system: OVCAR-4 ovarian
[30] = system: UACC-62 melanoma
[31] = system: EKVX NSCLC
[32] = system: XF 498 CNS
[33] = system: RXF 393 renal
[34] = system: DLD-1 colon
[35] = system: SNB-75 CNS
[36] = system: OVCAR-8 ovarian
[37] = system: NCI-H460 lung
[38] = system: NCI-H23 lung
[39] = system: A549 NSCLC
[40] = system: SK-OV-3 ovarian
[41] = system: DMS 273 small cell lung
[42] = system: COLO 205 colon
[43] = system: SNB-19 CNS
[44] = system: UACC-257 melanoma
[45] = system: HT29 colon
[46] = system: HCT-15 colon
[47] = system: KM12 colon
[48] = system: SN12C renal
[49] = system: U251 CNS
[50] = system: CCRF-CEM leukemia
[51] = system: KM20L2 colon
[52] = system: DMS 114 small cell lung
[53] = system: HCC-2998 colon
[54] = system: M19-MEL melanoma
[55] = system: SK-MEL-5 melanoma
[56] = system: SK-MEL-28 melanoma
[57] = system: HCT-116 colon

Measured: TGI

C[C@@]1(CO)O[C@H]1CCC#C[Si](C)(C)C
not listed: [52] | [53] | [54] | [55] | [56] | [57]
inactive: all other assays above

CCC12CCCN(Cc3ccccc3)C1c1c(n(C)c3ccccc13)[C@H](C(=O)OC)C2 (stereo partly drawn)
142 µM: [45]
238 µM: [7]
not listed: [6] | [13] | [15] | [29] | [35]
> 239 µM: all other assays above
